Data set [1] addresses T1, 5-HT2A receptor (Homo sapiens (Human), UniProt P28223). In words: Effect on calcium ion mobility in cells stably expressing 5-HT2A receptors (Flp-In-CHO-5HT2A, FLIPR). Conditions: Flp-In-CHO-5HT2A cells, 5HT as agonist. Type of data set: cell-based. As for the experimental part:
To determine the inhibitory effect of the compounds on 5-HT2A receptor.
Probenecid and BSA were added fresh on the day of the experiment.
The calcium signal values were determined by FLIPR. […] The percent inhibition rate and ten-point concentration data were fitted to the parametric nonlinear logistic equation by using GraphPad prism to calculate the IC50 values of the compound.

Data set [2] addresses Human Dopamine D3 Receptor (Homo sapiens (Human), UniProt P35462). The experiment in a line: Radioligand-receptor binding assay, dopamine D3 receptor ([3H]-methylspiperone). Conditions: [3H]-methylspiperone 0.5 nM, human D3 receptor membrane. As to the method: Determination of the Binding Ability of the Compounds of the Present Invention to Dopamine D3 Receptor
The objective of this test example is to determine the affinity of the compounds for dopamine D3 receptor.
Assay buffer: 50 mM Tris-HCl pH 7.4, 10 mM MgCl2; wash solution: 50 mM Tris-HCl pH 7.4, stored at 4° C.; 0.5% PEI solution: 0.5 g PEI dissolve in 100 mL ddH2O, 4° C. storage of spare.
(§1) 5 μL of the test compounds (0.005 nM to 100 nM, 10 concentrations in total) and 100 μL of buffer were added to a 96-well assay plate. 1 μL of cell membrane and 300 μL of buffer were added to each well, and the plate was shaken at 600 rpm for 5 min. A mixed solution of 100 μL of buffer and [^3H]-methylspiperone (the final concentration was 0.5 nM) was added to each well. The plate was shaken at 600 rpm for 5 min, and incubated at 27° C. for 30 min. The […]-96 GF/B filter plate pre-incubated with 0.5% PEI for 1 h was washed twice with the buffer (1 mL/well). The cell membrane suspension was added to the […]-96 GF/B filter plate, washed 4 times, and incubated at 55° C. for 10 min. 40 μL of ULTIMA GOLD was added to each well, and liquid scintillation counting was carried out.
(§2) The CPM (Counts per minute) values were determined by TopCount. […] The 10 concentrations of the compound were from 100 nM to 0.005 nM after 3-fold dilution of the reaction system. The percent inhibition rate and ten-point concentration data were fitted to the parametric nonlinear logistic equation by using GraphPad prism to calculate the IC50 values of the compound.

Data set [3] concerns the target T1, 5-HT2A receptor. In words: Radioligand-receptor binding assay, 5-HT2A receptor ([3H]-Ketanserin). Conditions: [3H]-Ketanserin 2 nM, human 5-HT2A receptor membrane; read-out: 5HT-2A binding activity IC50. As for the experimental part: Determination of the Binding Ability of the Compounds of the Present Invention to 5-HT2A Receptor
The objective of this test example is to determine the affinity of the compounds for 5-HT2A receptor.
Assay buffer: 50 mM Tris-HCl pH 7.4, 4 mM CaCl2); wash solution: 50 mM Tris-HCl pH 7.4, stored at 4° C.; 0.5% PEI solution: 0.5 g PEI dissolve in 100 mL ddH2O, 4° C. storage of spare.
as §1, with “plate. 1.5” for “plate. 1”, “300 L” for “300 μL”, “each well. The” for “each well, and the”, “and [^3H]-Ketanserin” for “and [^3H]-methylspiperone”, “was 2” for “was 0.5”
as §2

A short description of data set [4]: Pharmacokinetic assay in Balb/c mice (plasma and brain tissue). In kind it is in vivo. Particulars: p.o. 5 mg/kg; for AUC(0-t) / AUC(0-inf) / Cmax / MRT / half-life: male, Balb/c, mouse, po; for AUC(0-t): read-out: Area under curve AUC0-t; for AUC(0-inf): read-out: Area under curve AUC0-∞; for Cmax: read-out: Plasma concentration Cmax; for MRT: read-out: Average residence time MRT; for half-life: read-out: Half life t1/2 (converted). As to the method:
III. Pharmacokinetic Assay in Balb/c Mice
Balb/c mice were used as test animals. The pharmacokinetic behavior of the compounds of Examples of the present invention was studied in mouse body (plasma and brain tissue) by orally administration at a dose of 5 mg/kg.
Male Balb/c mice (12 mice per group), purchased from Shanghai Jiesijie Laboratory Animal Co., LTD, with Certificate No.: SCXK (Shanghai) 2013-0006 N0.311620400001794. • 2.3 Formulation of the preparation: […]
The test compound was dissolved in 0.5% CMC-Na (1% Tween80) by sonication to formulate a clear solution or homogeneous suspension. • 2.4 Administration:
After an overnight fast, male Balb/c mice (12 mice per group) were administered p.o. with the test compound at a dose of 5 mg/kg and a volume of 10 mL/kg. • 2.5 Sample collection:
0.2 mL of blood was taken from the heart of the mouse before administration and at 1, 2, 4, 8 and 24 hours after administration, and the mice were sacrificed with CO2. The samples were stored in EDTA-K2 tubes, and centrifuged for 6 minutes at 4° C., 6000 rpm to separate the plasma. The plasma samples were stored at −80° C. Whole brain tissue was taken out, weighed, placed in a 2 mL centrifuge tube, and stored at −80° C. • 2.6 Sample process:
1) 160 μL of acetonitrile was added to 40 μL of the plasma sample for precipitation, and then the mixture was centrifuged at 3500×g for 5 to 20 minutes.
2) 90 μL of acetonitrile containing internal standard (100 ng/mL) was added to 30 μL of the plasma and brain homogenate sample for precipitation, and then the mixture was centrifuged at 13000 rpm for 8 minutes.
3) 70 μL of water was added to 70 μL of the treated supernatant and mixed by vortex for 10 minutes. 20 μL of the solution was taken to analyze the concentration of the test compound by LC/MS/MS. LC/MS/MS analytical instrument: AB Sciex API 4000 Qtrap. • 2.7 Liquid chromatography analysis: • Liquid chromatography condition: Shimadzu LC-20AD pump • Chromatographic column: Agilent ZORBAX XDB-C18 (50×2.1 mm, 3.5 μm); Mobile phase: Eluent A was 0.1% formic acid in water, and Eluent B was acetonitrile • Flow rate: 0.4 mL/min • Elution time: 0-4.0 minutes the eluent is as follows:
The main parameters of pharmacokinetics were calculated by WinNonlin 6.1.

For a further data set, the target named is D3 receptor (Homo sapiens (Human), UniProt P35462). The experiment in a line: Effect on cAMP content in cells stably expressing D3 receptors (CHO-D3). Type of data set: cell-based. Conditions: forskolin stimulated, activation. As to the method: To determine the activation effect of the compounds on D3 receptor.
Sequence of D3 receptor (P35462 whole entry): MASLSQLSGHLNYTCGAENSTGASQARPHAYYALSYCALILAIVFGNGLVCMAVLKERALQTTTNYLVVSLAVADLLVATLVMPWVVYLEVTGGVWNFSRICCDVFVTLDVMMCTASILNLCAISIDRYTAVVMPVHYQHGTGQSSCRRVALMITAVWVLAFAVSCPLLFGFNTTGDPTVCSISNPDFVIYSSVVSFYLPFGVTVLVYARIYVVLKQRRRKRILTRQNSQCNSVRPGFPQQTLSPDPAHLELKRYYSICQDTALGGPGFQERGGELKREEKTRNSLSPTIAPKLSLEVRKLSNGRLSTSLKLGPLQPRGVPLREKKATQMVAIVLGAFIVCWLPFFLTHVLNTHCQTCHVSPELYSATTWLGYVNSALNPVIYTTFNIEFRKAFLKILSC
3. The experimental buffer (1*HBSS, 0.1% BSA, 20 mM HEPES and 500 μM IBMX) was prepared. The compound was diluted with the buffer. 2.5 μL of the compound solution was added to each well, and the plate was incubated at 37° C. for 10 minutes. The forskolin was diluted to 8 μM (8*) with the experimental buffer. […] The reaction plate was centrifuged at 200 g for 30 s at room temperature, and left to stand at 25° C. for 1 h. Data was collected using Envision.

The structures appear in SMILES notation. Where two headings read alike, the source gives them in different places.

Results on two molecules are retold here after patent US12459931B2, “Benzothiophene derivative regulator, preparation method therefor and use thereof” (Shanghai Hansoh Biomedical Co., Ltd., priority 2019, dated 2025).

T1 sequence (P28223 whole entry): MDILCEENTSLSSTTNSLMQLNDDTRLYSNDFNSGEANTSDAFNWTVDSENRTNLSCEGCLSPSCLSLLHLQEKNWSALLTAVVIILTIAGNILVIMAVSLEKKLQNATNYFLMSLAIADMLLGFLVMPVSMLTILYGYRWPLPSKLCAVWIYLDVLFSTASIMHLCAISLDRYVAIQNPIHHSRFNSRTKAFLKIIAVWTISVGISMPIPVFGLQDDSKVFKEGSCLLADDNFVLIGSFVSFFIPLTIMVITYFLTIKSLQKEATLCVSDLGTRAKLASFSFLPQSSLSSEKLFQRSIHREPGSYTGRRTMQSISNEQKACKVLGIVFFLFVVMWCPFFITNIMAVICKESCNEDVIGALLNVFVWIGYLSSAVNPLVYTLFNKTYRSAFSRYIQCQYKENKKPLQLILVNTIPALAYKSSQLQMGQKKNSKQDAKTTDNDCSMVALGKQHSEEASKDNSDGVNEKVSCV
Sequence of Human Dopamine D3 Receptor (P35462 whole entry): as the sequence (P35462 whole entry) above

With `O=C(N[C@H]1CC[C@](F)(CCN2CCN(c3cccc4sccc34)CC2)CC1)c1ccco1` [Example 40, N-(Cis-4-(2-(4-(benzo[b]thiophen-4-yl)piperazin-1-yl)ethyl)-4-fluorocyclohexyl)furan-2-carboxamide], the concentration for half-maximal inhibition (IC50) at 5-HT2A receptor [1] is 3.16 nM. This molecule also showed an IC50 in data set [2] of 0.83 nM. For the same molecule, the IC50 at 5-HT2A receptor [3] is 0.43 nM. In addition, in data set [4] (Brain), the Peak time tmax was found to be 1 h, the AUC(0-t) was determined as 4590 ng·h/mL, the AUC(0-inf) was determined as 4960 ng·h/mL and the Cmax was 328 ng/mL. In addition, in data set [4] (Plasma), the Peak time tmax was 6 h, the AUC(0-t) was found to be 3070 ng·h/mL, the AUC(0-inf) was 3390 ng·h/mL and the MRT turned out to be 9.21 h. Moreover, in data set [4] (Plasma), the half-life was 7.3 h and the Cmax was found to be 192 ng/mL.

`O=C(N[C@H]1CC[C@H](CCN2CCN(c3cccc4sccc34)CC2)CC1)c1ncco1` [Example 43, N-(Trans-4-(2-(4-(benzo[b]thiophen-4-yl)piperazin-1-yl)ethyl)cyclohexyl)oxazole-2-carboxamide] came in with an EC50 on D3 receptor of 0.1 nM. In data set [2], this molecule displayed an IC50 of 0.43 nM. The IC50 on 5-HT2A receptor [3] amounted to 0.37 nM. Besides, in data set [4] (Brain), the Peak time tmax was found to be 1 h, the AUC(0-t) is 14100 ng·h/mL, the AUC(0-inf) came to 16500 ng·h/mL and the Cmax was 1390 ng/mL. Also, in data set [4] (Plasma), the Peak time tmax came to 1 h, the AUC(0-t) was determined as 4140 ng·h/mL, the AUC(0-inf) was 4860 ng·h/mL and the MRT worked out at 11.8 h. In addition, in data set [4] (Plasma), the half-life is 8.9 h and the Cmax turned out to be 403 ng/mL.
